Measurements reported in US6818414B1, “Method of pretreatment of sample for quantitating cholesterol and method for quantitating cholesterol in specific lipoproteins by using the same” (Daiichi Pure Chemicals Co., Ltd., priority 1999, dated 2004).

Test system: cholesterol oxidase
Test: Relative absorbance of free cholesterol reaction in serum with cholesterol oxidase and fulfenamic acid (Reagents J to L)
Type: biochemical
Conditions: 600 nm, 37° C. 5 minutes, pH 6.0/7.0/8.0, 5.0 U/mL cholesterol oxidase and 0 mM fulfenamic acid = 100, average of four serum samples
Method: Reagents J to L shown below in Table 6 were prepared, which commonly contained 1.25 U/mL peroxidase (product of Toyobo Co., Ltd.), 0.01% 4-aminoantipyrine, 0.02% disulfo butyl-m-toluidine and 50 mM NaCl and were different from each other in the kind and pH of buffer and the concentrations of cholesterol oxidase (product of Toyobo Co., Ltd.) and fulfenamic acid (product of Sigma Chemical Co.).
Reagents J to L (300 μL) were separately added to aliquots (3 μL) of each serum sample. After the resultant mixtures were incubated at 37° C. for 5 minutes, their absorbances were measured at600 nm. The above procedures were conducted using the Hitachi 7150 automated analyzer.
With respect to each of Reagents J to L, relative absorbances were calculated for the individual concentrations of cholesterol oxidase and fulfenamic acid by assuming that the absorbance obtained with a reagent containing 5.0 U/mL cholesterol oxidase and 0 mM fulfenamic acid was 100.
Results, which had been obtained by averaging the relative absorbances of the four samples, are presented in FIG. 3. in which “COD” stands for cholesterol oxidase.

## O=C(O)c1ccccc1Nc1cccc(C(F)(F)F)c1 [fulfenamic acid, flufenamic acid]
  relative absorbance: increased depending upon the concentration of fulfenamic acid irrespective of the pH
